Key:
[1] = system: Annexin V, an apoptosis marker, in muscle tissue; assay: Annexin V immunohistochemical staining in muscle tissue of muscle disease mouse model after injection of treated P18 cells; assay type: in vivo; settings: P18 cells treated with 160 μM for 72 hours, 5×10^4 cells per mouse via tail vein, one week after injection
Method: A replicative senescence model (P18) was treated with nervonic acid (160 μM) and then injected into a muscle disease mouse model to assess the effect of nervonic acid treatment on the therapeutic efficacy of the replicative senescence model (P18) in terms of reducing apoptosis in muscle tissue.
Specifically, the muscle disease mouse model used was C57BL/10ScSn-Dmdmdx/J (mdx mouse) , and C57BL/10J with the same genetic background was used as a control group. All experiments were conducted using mice aged 4 to 5 months. The cells to be injected were human umbilical cord-derived young mesenchymal stem cells (control group) (P5) and replicative senescence model (P18). […]
In order to assess the extent of apoptosis in the muscle tissue of a muscle disease mouse model after injecting mesenchymal stem cells for each condition, the extent of apoptosis in the tissue was determined through immunohistochemical staining for Annexin V, an apoptosis marker. […] Then, the secondary antibody (fluorescence-labeled polymer anti-rabbit) was added and incubated for […] followed by mounting, DAPI staining, washing, and then observation and photography under a fluorescence microscope.

[2] = system: MyHC (myosin heavy chain), a marker of muscle regeneration, in muscle tissue; assay: MyHC immunohistochemical staining in muscle tissue of muscle disease mouse model after injection of treated P18 cells; assay type: in vivo; settings: P18 cells treated with 160 μM for 72 hours, injected via tail vein, mdx mouse, one week after injection
Method: Specifically, the muscle disease mouse model used was C57BL/10ScSn-Dmdmdx/J (mdx mouse) , and C57BL/10J with the same genetic background was used as a control group. All experiments were conducted using mice aged 4 to 5 months. The cells to be injected were human umbilical cord-derived young mesenchymal stem cells (control group) (P5) and replicative senescence model (P18). More specifically, the replicative senescence model (P18) was treated with 160 μM nervonic acid or an equivalent amount of DMSO for 72 hours during culture at P18 and then dissociated as single cells with 0.25% Trypsin/EDTA (Gibco, MT, USA), and 5×10^4 cells per mouse were injected via the tail vein. One week after injection, both tibial muscles of the mouse model were harvested and fixed in 4% paraformaldehyde or frozen.
Example 10. […]
In order to assess the extent of muscle regeneration in the muscle tissue of a muscle disease mouse model after injecting mesenchymal stem cells for each condition, the extent of muscle regeneration in the tissue was determined through immunohistochemical staining for MyHC (myosin heavy chain), a marker of muscle regeneration. […]

[3] = system: senescence markers P16 and P21; assay: Western blotting of P16 and P21 in replicative senescence model (P18); assay type: cell-based, human; settings: 160 μM
Method: In order to verify the anti-senescence efficacy of nervonic acid, the expression levels of senescence-related markers in a control group (P5) and a replicative senescence model (P18) were measured after treatment with nervonic acid (160 μM).
Specifically, Western blotting performed in this example is as follows: cells were collected, and the cell membrane was broken using RIPA buffer, followed by centrifugation to collect the supernatant. Intracellular proteins were quantified using the Bradford assay (Bio-Rad, USA), and 20 μg of protein for each sample was loaded onto the gel, followed by electrophoresis using SDS. After transferring the protein to a polyvinylidene fluoride (PVDF) membrane, 1× TBST (Tris-buffered saline with 0.1% Tween 20) solution containing 5% skim milk (BD Difco, USA) was added and incubated at room temperature for 1 hour. Thereafter, P16 (1: 1000, Cell Signaling, USA), P21 (1: 1000, Cell Signaling, USA), and β-actin (1:5000; Santa Cruz, USA) antibodies were added and incubated overnight at 4° C. Then, the secondary antibody (anti-rabbit IgG-HRP; ABClon, Korea) was added and incubated at room temperature for one hour. Afterwards, the blots were visualized using ECL (Bio-Rad, USA) and assessed.

[4] = system: human-derived mesenchymal stem cells, control cells (P5) subcultured to P10; assay: β-galactosidase staining during serial subculture P5 to P10 with treatment at each passage; assay type: cell-based; settings: 160 μM for 24 hours at each passage
Method: Example 8. Confirmation Of anti-senescence efficacy by treating various human tissue-derived mesenchymal stem cells with nervonic acid Human-derived mesenchymal stem cells were treated with nervonic acid (160 μM) at each passage during cell culture from control cells (P5) to P10 to determine whether continuous treatment with nervonic acid during cell culture at early passage numbers was able to delay cellular senescence.
Specifically, from the day after human-derived mesenchymal stem cells were subcultured, treatment with 160 μM nervonic acid or an equivalent amount of DMSO (control) for 24 hours was performed, followed by replacement with the existing culture medium the next day. The above process was repeated to perform subculture up to P10 (passage 10). As such, B galactosidase staining for measuring cellular senescence was performed at P7, P8, P9, and P10, and cell doubling time and RNA extraction for qRT-PCR were both performed at P10. A more specific procedure therefor was carried out in the same manner as described above.

[5] = system: control cells (P5), human umbilical cord-derived mesenchymal stem cells; assay: Cell proliferation by CCK-8 assay, 6 days, control cells (P5); assay type: cell-based; settings: 160 μM
Method: Example 4. Validation of gut microbiota-derived metabolite candidate for senescence control Control cells (P5) and replicative senescence-induced human umbilical cord-derived mesenchymal stem cells (P18) were treated with nervonic acid (160 μM) to analyze the effects of the gut microbiota-derived metabolite having the ability to control senescence of stem cells on the proliferation of stem cells and cell size.
Specifically, control cells (p5) and replicative senescence-induced human umbilical cord-derived mesenchymal stem cells (P18) were exposed to nervonic acid (160 μM) in culture medium, followed by culture for 6 days while replacing the medium every 3 days, and cell proliferation was assessed using CCK-8 assay.

`CCCCCCCC/C=C\CCCCCCCCCCCCCC(=O)O` [nervonic acid] was tested, and the “Annexin V expression level (immunohistochemical staining) compared to mdx control group” value [1] was “significantly reduced”, the “MyHC expression level (immunohistochemical staining) compared to injection group treated with DMSO” value [2] was “slightly increased” and the “P16 protein expression level, fold compared to before treatment” value [3] was 0.65±0.07 fold. For the same compound, the “P21 protein expression level, fold compared to before treatment” value ([3]; not significant) was 0.82±0.07 fold, the “extent of senescence (β-galactosidase staining), fold compared to DMSO control at P10” value [4] was 0.40±0.07 fold and the cell proliferation [5] was “no change in proliferation”.

From patent US20260226417A1, “METHOD FOR INHIBITING AGING OF STEM CELLS” (ENCELL CO., LTD, priority 2023, published 2026)
